The results in this text go back to PMC12586182 (Frontiers in Oncology, 2025).

Bounds are passed on as bounds.

One assay addresses T1, JAK2 (Homo sapiens, UniProt O60674).
T1 construct: purchased Carna Biosciences
As to the kind of experiment: Kinase panel profiling at 1 µmol/L (mobility shift assay, Carna). The following applies: 1 µmol/L of BTK inhibitor. The format is biochemical.

In another assay the target is T2, ROS (Homo sapiens, UniProt P08922).
T2 construct: purchased Carna Biosciences
T2 sequence (P08922 28-2347): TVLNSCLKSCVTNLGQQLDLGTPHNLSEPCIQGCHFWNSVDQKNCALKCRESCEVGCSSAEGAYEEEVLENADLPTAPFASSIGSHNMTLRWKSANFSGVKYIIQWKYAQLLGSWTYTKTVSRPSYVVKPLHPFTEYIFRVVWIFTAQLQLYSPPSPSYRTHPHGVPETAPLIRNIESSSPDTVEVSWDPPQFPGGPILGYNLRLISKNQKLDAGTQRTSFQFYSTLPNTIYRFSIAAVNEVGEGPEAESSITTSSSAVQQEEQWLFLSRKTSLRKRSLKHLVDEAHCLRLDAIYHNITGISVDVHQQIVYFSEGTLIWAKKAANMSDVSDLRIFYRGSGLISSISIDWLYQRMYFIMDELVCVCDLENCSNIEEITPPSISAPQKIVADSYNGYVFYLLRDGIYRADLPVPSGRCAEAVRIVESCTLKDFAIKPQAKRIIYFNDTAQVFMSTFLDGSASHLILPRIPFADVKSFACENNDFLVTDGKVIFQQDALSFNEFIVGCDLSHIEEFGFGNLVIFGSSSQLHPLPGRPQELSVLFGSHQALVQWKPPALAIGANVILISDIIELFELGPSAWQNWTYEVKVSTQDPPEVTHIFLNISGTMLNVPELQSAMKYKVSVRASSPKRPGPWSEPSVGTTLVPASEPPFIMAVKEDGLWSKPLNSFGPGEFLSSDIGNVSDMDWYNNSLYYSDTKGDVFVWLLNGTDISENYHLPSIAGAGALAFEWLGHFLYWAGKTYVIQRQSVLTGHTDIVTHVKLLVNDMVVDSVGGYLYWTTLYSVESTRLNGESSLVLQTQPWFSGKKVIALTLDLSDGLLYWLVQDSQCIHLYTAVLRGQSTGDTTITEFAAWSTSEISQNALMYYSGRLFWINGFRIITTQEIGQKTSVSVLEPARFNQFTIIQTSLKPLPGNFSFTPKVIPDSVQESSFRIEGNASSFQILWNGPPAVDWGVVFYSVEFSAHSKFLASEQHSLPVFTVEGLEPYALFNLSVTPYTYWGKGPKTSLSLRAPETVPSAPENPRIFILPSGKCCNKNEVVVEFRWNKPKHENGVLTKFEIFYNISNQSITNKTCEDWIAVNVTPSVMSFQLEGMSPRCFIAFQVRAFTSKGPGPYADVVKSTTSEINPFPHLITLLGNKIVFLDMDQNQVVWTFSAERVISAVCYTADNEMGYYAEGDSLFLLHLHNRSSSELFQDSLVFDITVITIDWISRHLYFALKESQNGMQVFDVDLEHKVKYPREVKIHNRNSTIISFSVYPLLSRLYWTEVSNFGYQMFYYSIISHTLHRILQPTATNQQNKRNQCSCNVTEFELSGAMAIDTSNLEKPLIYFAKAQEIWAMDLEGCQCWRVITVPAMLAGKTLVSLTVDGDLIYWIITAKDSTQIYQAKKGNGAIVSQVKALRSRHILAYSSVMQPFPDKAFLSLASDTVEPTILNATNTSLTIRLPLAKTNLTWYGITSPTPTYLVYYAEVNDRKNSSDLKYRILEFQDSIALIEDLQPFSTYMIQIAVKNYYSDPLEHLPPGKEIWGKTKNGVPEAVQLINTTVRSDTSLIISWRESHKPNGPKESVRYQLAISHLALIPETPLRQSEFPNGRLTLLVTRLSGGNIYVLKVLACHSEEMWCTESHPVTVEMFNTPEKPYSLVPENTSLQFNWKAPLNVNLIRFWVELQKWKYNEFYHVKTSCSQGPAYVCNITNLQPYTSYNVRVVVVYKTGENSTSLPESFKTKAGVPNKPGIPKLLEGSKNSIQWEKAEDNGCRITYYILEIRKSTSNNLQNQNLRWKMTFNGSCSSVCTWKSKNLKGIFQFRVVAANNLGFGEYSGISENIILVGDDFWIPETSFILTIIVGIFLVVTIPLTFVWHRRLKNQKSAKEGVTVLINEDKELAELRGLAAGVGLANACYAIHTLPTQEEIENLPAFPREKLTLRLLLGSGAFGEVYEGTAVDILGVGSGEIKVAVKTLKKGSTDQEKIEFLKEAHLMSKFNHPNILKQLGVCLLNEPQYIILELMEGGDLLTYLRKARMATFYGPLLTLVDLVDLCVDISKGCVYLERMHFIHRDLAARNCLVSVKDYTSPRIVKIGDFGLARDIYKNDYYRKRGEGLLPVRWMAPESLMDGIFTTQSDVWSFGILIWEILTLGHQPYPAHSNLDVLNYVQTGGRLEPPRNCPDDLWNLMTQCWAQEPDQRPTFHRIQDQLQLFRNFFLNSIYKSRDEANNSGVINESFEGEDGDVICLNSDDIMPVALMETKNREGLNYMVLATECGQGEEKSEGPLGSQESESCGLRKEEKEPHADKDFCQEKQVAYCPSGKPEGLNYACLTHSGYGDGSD
The description is as above. The format is biochemical. The following applies: 1 µmol/L of BTK inhibitor.

The next assay deals with T3, DYRK2 (Homo sapiens, UniProt Q92630).
T3 construct: purchased Carna Biosciences
T3 sequence (Q92630 1-601): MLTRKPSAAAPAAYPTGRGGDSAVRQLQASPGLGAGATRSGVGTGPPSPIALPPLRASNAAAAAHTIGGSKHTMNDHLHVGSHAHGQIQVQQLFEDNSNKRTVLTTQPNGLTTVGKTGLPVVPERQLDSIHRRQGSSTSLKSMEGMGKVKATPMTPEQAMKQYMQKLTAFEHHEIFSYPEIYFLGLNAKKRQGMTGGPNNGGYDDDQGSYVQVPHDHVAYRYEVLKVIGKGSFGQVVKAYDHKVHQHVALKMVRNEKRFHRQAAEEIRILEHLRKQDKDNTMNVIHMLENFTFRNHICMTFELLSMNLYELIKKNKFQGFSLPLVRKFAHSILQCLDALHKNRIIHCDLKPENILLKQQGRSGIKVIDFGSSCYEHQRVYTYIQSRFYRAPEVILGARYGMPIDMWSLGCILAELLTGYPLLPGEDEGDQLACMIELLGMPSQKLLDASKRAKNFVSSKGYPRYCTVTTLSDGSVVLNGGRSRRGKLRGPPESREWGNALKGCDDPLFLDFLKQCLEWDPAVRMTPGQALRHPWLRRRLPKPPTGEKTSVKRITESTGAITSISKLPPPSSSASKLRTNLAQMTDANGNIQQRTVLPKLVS
Described as above. The following applies: 1 µmol/L of BTK inhibitor. The format is biochemical.

Another assay concerns the target T4, NDR1 (Homo sapiens, UniProt Q15208).
T4 construct: purchased Carna Biosciences
The assay is described as above. It counts as biochemical. The following applies: 1 µmol/L of BTK inhibitor.

The target of the next assay is T5, PKD3 (Homo sapiens, UniProt O94806).
T5 construct: purchased Carna Biosciences
T5 sequence (O94806 1-890): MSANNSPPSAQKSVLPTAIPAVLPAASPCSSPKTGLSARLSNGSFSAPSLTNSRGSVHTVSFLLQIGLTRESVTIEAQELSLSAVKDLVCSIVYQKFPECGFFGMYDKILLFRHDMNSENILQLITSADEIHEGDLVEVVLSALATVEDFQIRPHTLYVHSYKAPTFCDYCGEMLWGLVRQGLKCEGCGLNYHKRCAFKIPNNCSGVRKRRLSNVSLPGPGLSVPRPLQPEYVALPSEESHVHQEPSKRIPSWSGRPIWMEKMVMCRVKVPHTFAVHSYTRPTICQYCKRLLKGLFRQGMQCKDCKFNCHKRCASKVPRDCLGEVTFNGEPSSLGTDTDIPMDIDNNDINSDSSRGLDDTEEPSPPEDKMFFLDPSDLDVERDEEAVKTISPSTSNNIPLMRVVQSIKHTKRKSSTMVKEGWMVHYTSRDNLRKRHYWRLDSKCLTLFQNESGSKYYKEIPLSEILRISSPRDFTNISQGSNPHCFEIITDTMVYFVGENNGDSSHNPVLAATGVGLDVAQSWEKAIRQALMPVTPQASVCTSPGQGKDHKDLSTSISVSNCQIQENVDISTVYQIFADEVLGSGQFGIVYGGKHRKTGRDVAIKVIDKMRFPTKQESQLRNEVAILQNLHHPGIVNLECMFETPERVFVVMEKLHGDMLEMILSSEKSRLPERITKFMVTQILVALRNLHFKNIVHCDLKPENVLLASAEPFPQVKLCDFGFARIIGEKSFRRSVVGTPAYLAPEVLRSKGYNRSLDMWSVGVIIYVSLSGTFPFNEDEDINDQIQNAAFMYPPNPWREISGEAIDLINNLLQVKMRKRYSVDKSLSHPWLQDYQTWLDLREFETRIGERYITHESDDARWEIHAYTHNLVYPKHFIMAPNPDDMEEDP
The assay is described as above. The format is biochemical. The following applies: 1 µmol/L of BTK inhibitor.

The next assay deals with T6, TSSK1 (Homo sapiens, UniProt Q9BXA7).
T6 construct: purchased Carna Biosciences
T6 sequence (Q9BXA7 1-367): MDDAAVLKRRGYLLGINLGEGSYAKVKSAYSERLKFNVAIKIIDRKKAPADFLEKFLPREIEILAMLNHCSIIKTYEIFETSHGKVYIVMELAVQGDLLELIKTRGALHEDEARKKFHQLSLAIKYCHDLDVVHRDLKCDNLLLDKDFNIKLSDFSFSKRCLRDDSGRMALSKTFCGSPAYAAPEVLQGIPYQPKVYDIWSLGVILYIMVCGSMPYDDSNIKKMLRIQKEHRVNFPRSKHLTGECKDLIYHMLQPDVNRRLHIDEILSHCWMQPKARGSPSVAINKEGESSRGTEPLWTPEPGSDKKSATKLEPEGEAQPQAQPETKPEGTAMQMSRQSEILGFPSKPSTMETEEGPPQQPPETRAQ
Described as above. The format is biochemical. The following applies: 1 µmol/L of BTK inhibitor.

Another assay addresses T7, TEC (Homo sapiens, UniProt P42680).
T7 sequence (P42680 1-631): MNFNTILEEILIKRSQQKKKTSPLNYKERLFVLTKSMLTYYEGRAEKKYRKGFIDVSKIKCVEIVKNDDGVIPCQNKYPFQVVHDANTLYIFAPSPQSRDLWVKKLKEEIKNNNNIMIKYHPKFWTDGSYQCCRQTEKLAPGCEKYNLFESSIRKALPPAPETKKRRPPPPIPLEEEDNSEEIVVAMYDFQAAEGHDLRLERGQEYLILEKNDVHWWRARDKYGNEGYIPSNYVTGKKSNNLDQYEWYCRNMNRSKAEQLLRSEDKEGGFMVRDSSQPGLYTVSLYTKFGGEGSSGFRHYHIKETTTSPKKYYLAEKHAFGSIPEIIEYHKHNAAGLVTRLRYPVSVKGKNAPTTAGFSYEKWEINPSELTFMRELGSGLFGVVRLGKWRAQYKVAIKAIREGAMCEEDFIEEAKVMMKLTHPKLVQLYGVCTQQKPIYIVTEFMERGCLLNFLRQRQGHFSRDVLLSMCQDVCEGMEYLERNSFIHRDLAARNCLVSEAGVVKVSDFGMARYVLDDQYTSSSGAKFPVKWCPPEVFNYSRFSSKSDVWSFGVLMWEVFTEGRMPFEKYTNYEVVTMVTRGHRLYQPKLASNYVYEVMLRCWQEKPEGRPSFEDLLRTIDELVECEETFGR
As to the kind of experiment: Kinase enzyme activity assay (mobility shift assay, Carna). The following applies: for Percentage inhibition of kinase enzyme activity: TEC, 1 µmol/L of BTK inhibitor.

The term IC50 denotes the point on the concentration scale where inhibition reaches its midpoint. In general, inhibition refers to the share of the control response that was lost under treatment.

T1 sequence (O60674 whole entry): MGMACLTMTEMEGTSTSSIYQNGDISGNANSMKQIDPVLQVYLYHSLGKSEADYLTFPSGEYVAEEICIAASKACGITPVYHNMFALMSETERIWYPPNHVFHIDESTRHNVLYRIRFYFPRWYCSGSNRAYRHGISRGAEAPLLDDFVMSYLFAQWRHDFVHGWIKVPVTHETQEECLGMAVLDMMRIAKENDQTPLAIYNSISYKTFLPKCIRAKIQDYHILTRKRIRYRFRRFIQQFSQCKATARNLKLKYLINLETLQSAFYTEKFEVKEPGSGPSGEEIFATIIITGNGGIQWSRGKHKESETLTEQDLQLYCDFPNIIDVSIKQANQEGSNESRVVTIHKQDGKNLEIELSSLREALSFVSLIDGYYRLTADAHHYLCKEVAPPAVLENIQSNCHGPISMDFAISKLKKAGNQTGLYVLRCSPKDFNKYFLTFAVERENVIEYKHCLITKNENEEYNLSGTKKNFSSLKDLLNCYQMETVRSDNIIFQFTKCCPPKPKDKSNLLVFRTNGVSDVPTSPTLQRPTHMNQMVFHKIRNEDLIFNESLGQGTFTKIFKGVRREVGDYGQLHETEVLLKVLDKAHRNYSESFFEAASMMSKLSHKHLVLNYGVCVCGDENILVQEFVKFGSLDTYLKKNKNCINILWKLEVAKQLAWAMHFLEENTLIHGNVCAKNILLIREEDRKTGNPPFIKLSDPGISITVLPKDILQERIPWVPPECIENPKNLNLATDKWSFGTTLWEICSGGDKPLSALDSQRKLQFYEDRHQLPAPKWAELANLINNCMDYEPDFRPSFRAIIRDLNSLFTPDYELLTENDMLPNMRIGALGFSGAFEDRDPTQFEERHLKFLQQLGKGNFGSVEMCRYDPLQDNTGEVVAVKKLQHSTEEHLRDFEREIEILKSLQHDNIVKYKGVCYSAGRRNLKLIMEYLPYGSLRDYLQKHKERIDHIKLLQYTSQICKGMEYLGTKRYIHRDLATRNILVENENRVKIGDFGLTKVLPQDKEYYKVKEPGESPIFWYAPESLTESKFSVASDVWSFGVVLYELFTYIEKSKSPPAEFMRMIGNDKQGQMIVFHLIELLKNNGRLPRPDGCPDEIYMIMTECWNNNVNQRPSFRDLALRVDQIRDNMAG
T4 sequence (Q15208 whole entry): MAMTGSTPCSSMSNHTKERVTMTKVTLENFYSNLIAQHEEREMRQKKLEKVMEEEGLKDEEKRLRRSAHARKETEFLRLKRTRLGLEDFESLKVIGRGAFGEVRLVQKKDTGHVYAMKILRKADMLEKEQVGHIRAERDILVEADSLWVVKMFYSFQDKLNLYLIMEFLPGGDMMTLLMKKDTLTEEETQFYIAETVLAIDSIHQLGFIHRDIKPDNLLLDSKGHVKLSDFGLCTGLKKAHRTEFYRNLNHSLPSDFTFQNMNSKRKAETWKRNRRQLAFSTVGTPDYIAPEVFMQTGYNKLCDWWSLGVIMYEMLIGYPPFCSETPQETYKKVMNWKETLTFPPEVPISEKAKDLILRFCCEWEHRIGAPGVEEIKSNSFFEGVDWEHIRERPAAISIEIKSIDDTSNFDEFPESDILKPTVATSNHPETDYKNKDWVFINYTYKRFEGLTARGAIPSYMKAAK

On to `CC#CC(=O)N1CCC[C@H]1c1nc(-c2ccc(C(=O)Nc3ccccn3)cc2)c2c(N)nccn12` [acalabrutinib], for which the “Percentage inhibition of kinase enzyme activity” value (“Percentage inhibition” below) at JAK2 is listed as -9.14%; on ROS it was 1.79%; on DYRK2, -16.01%; at NDR1 it was -6.32%; on PKD3 it was -2.07%; at TSSK1, -7.15%. The “Percentage inhibition” value at TEC came out at 95.77%.

Turning to `C=CC(=O)N1CCC[C@@H](n2nc(-c3ccc(Oc4ccccc4)cc3)c3c(N)ncnc32)C1` [ibrutinib], the “Percentage inhibition” value is 0.41% on JAK2; 4.82% at ROS; -1.83% at DYRK2; 2.65% on NDR1; 5.48% on PKD3; 9.10% on TSSK1. Also, the “Percentage inhibition” value on TEC is recorded as 91.92%.

Regarding `O=C(c1ccc(Oc2ccccc2)cc1Cl)c1c[nH]c2ncnc(N[C@@H]3CC[C@@H](CO)OC3)c12` [nemtabrutinib], the “Percentage inhibition” value on JAK2 was 14.34%; at ROS it was 60.67%; on DYRK2, -2.66%; on NDR1 it was 3.34%; at PKD3 it was 16.29%; at TSSK1, 5.68%. Further, the “Percentage inhibition” value on TEC is recorded as 98.70%. Moreover, the IC50 at TEC came to 0.75 nM.

As for `COc1ccc(F)cc1C(=O)NCc1ccc(-c2nn([C@@H](C)C(F)(F)F)c(N)c2C(N)=O)cc1` [pirtobrutinib], the “Percentage inhibition” value is listed as 0.45% at JAK2; 3.20% at ROS; -4.14% on DYRK2; 1.20% on NDR1; 2.18% on PKD3; -0.58% at TSSK1. Besides, on TEC, the “Percentage inhibition” value is reported as 87.84%. Further, the inhibition at 1 µM on TEC (read-out: Inhibition of TEC) was over 75%.

For `C=CC(=O)N1CCC([C@@H]2CCNc3c(C(N)=O)c(-c4ccc(Oc5ccccc5)cc4)nn32)CC1` [zanubrutinib], the “Percentage inhibition” value on JAK2 came out at 9.66%.
